The results in this text go back to PubChem BioAssay AID1508591.

A value given as a limit tells only on which side of the number the result lay.

For the data set the following is noted: rat; liver microsomes; pH 7.4; 15.0 min; 1.0 µM. (Liver microsomes are a subcellular fraction often used to study metabolism.)
One may read the half-life as the time in which the quantity being followed falls by half. `CCN(CC)S(=O)(=O)c1ccc(N2CCCC2)c(NS(=O)(=O)c2ccc(C)cc2)c1`: the half-life is 1.17 min.
Compound `Cc1cnc(-c2ccccc2C2COC2)nc1NCc1ccc(-c2cccnc2)cc1` had a half-life of 12 min. This half-life lies about 10-fold higher than the previous one.
The result for `NC(=O)N1CCCC(C(=O)N2CCCN(c3ccc(F)cc3)CC2)C1` (configuration not stated) reads more than 30 min; that for `CCN(CC)CCCC(C)Nc1cc(/C=C/c2ccccc2Cl)nc2cc(Cl)ccc12` (configuration not stated), 7.34 min.
On to `CN1CCc2cc3c(cc2C1)OCO3`, for which the half-life amounted to 1 min. This half-life is about 7.3-fold lower than that of the compound before.
`CCn1c(SCc2ccc(C#N)cc2)nnc1-c1cccc(Cl)c1` had a half-life of 3 min.
As for `Cc1cc(SCc2sc(-c3ccc(C(F)(F)F)cc3)nc2C)ccc1OCC(=O)O`, the half-life is more than 30 min.
The result for `O=C1NC(=O)C(c2cnc3ccccn23)=C1c1cn2c3c(cccc13)CN(C(=O)N1CCOCC1)CC2` reads more than 30 min.
For `Nc1ncnc(N2CCc3ccccc32)c1[N+](=O)[O-]`, the half-life is 8.6 min.
In turn, `O=C(c1ccc2c(c1)ncn2-c1cccc(C(F)(F)F)c1)N1CCCCC1` registered a half-life of 4.4 min. This half-life is about 2-fold lower than that of the compound before.
Compound `CC(C)CC(=O)Nc1n[nH]c2c1CN(C(=O)C1CCN(C)CC1)C2(C)C` came in with a half-life of more than 30 min.
For the compound `Nc1c(-c2ccncc2)cc[nH]c1=O`, the half-life was more than 30 min.
In turn, `Fc1cc(Nc2nc(-c3ccncc3)nc3ccccc23)ccc1-c1cccc(OC(F)F)c1` gave a half-life of more than 30 min.
Compound `Fc1ccc(Nc2nc(-c3ccnc(N4CCCCC4)c3)nc3ccccc23)cc1F` came in with a half-life of 26 min.
The value for `c1ccc(Nc2nc(NCc3ccco3)c3ccccc3n2)cc1` was 2.09 min.
Regarding `Cc1cccc(CN2CCN(c3ccccn3)CC2)c1`, the half-life was 2.4 min.
The value for `CC(=O)c1c(C)[nH]c(C(=O)Nc2ccc(C)c(S(=O)(=O)N3CCCCCC3)c2)c1C` was 1.9 min.
`Cc1sc(NC(=O)Cc2ccc3c(c2)OCO3)nc1-c1ccc2c(c1)CCN2` showed a half-life of 8.6 min. Compared with the last compound, the half-life is about 4.5-fold higher.
The compound `Cc1cc(NS(=O)(=O)c2ccc(NC(=O)Cc3ccc(Cl)c(Cl)c3)cc2)no1` registered a half-life of 9.7 min.
In the case of `COCCNCc1ccc(-c2cc3nccc(Oc4ccc(NC(=S)NC(=O)Cc5ccc(F)cc5)cc4F)c3s2)nc1`, the half-life worked out at 10.3 min.
The compound `COc1cc(Cl)c(C)cc1NS(=O)(=O)c1c(C)nc2sccn2c1=O` came in with a half-life of 1.53 min.
With `OC1(CN2CCN(c3ccc(F)c(Cl)c3)CC2)CCCNC1` (configuration not stated), the half-life turned out to be 5.96 min. Against the preceding compound, the half-life is about 3.9-fold higher.
As for `CC[S+](=O)([O-])Nc1ccccc1C(=O)Nc1nc(-c2ccccc2)cs1`, the half-life amounted to 14 min.
`COC(=O)c1ccc2nc(NC3=NC(c4[nH]ncc4Cl)C4=C(CCCC4=O)N3)oc2c1` (configuration not stated): the half-life came out at 5.9 min.
The value for `O=C(Nc1ccc(-c2ccccc2)cc1)[C@H](Cc1ccc(O[S+](=O)([O-])c2cccc3cnccc23)cc1)N[S+](=O)([O-])c1cccc2cnccc12` was 3.1 min; that for `O=C(O)CCNc1cc(N2CCc3ccccc3CC2)nc(-c2cccnc2)n1` was more than 30 min; that for `Fc1ccccc1-c1nc(NCc2ccc(-c3cccnc3)cc2)c2ccccc2n1` was 5.9 min.
Regarding `N#Cc1ccccc1S(=O)(=O)Nc1cnccc1C(=O)Nc1nc(-c2ccccc2)cs1`, the half-life turned out to be 7 min.
For `Cc1ccc2c(c1)[nH]c1c(N3CCN(Cc4ccccc4)CC3)ncnc12`, the half-life worked out at 7.49 min.
Regarding `CCN(CC)S(=O)(=O)c1ccc2oc(C(=O)Nc3ccc(Br)cc3F)c(C)c2c1`, the half-life turned out to be 7.91 min.
`COc1cccc(CNc2ccc(S(=O)(=O)Nc3ccc(C4CCNCC4)cc3)cc2)c1O`: the half-life was 29 min.
For `COc1ccc(-c2ccc3ncc(Nc4cccnc4OC)n3n2)cn1`, the half-life came out at 10.8 min.
For `CCOC(=O)N1CCN(Cc2nc3c(c(=O)n(C)c(=O)n3C)n2Cc2cccc(C)c2)CC1`, the half-life is 4.9 min. This half-life is about 2.2-fold lower than that of the compound before.
Turning to `O=C(NC1CCCCC1)N1Cc2[nH]cnc2C[C@H]1c1nc(-c2cccc([N+](=O)[O-])c2)no1`, the half-life was found to be 10.3 min.
`CC1=C(C(=O)Nc2ccccc2Cl)C(c2ccccc2Br)N=C(Nc2nc3ccccc3o2)N1` (configuration not stated) displayed a half-life of more than 30 min.
Compound `Cc1ccc2oc3c(c(=O)c2c1)C(c1ccc(O)cc1)N(CCCN(C)C)C3=O` (configuration not stated) displayed a half-life of more than 30 min.
The value for `COc1ccccc1OCCNCC(O)COc1cccc2[nH]c3ccccc3c12` (configuration not stated) was 1.52 min; that for `CN1C(=O)C(=O)N2C(=C[C@]3(c4c[nH]c5ccccc45)c4ccccc4N[C@H]23)C1=O` was 4.83 min; that for `O=C(CSc1ccccc1)Nc1nnc(COc2ccc(Cl)cc2)s1` was 7 min.
The result for `CC(C)Oc1cccc(-c2csc(N3CCC(C(N)=O)CC3)n2)c1` reads 3.09 min; that for `COc1cc(Nc2nc(-c3ccncc3)nc3ccccc23)ccc1F`, 7.35 min.
`CC1(C)C[C@@H]2C[C@@](C)(CN2S(=O)(=O)c2ccc(C(=O)Nc3ccc(Cl)c(S(=O)(=O)N4CCOCC4)c3)cc2)C1` gave a half-life of 3.95 min.
The result for `CSc1ccccc1N1CCN(CCCCCC(=O)NC2CCCc3ccccc32)CC1` (configuration not stated) reads 2.21 min.
As for `CC(=O)c1c(C)[nH]c(C(=O)Nc2cccc([S+](=O)([O-])N3CCC(F)(F)CC3)c2)c1C`, the half-life came out at 2.4 min.
For `NC(=O)C1CCN(c2nc(-c3ccc4c(c3)OCCCO4)cs2)CC1`, the half-life worked out at 6.7 min. This half-life lies about 2.8-fold higher than the previous one.
In turn, `COc1ccc(C)cc1Nc1c2c(nc3ccccc13)CCC2` yielded a half-life of 1.55 min.
For the compound `CCOC(=O)c1ccc(-n2cnc3cc(C(=O)N4CCCCC4)ccc32)cc1`, the half-life is 1.7 min. The half-life values of the last two compounds are within 1.5-fold of each other.
`CC(=O)N1CCc2cc(-c3nc(NC(=O)Cc4ccc5c(c4)OCO5)sc3C)ccc21` returned a half-life of 20 min.
`Cc1cnc(N2CCC(C(N)=O)CC2)nc1-c1cccc(N(C)C)c1` came in with a half-life of 8.45 min.
For the compound `Clc1ccccc1Nc1nc(-c2ccncc2)nc2ccccc12`, the half-life came out at 11 min.
For the compound `Cc1ccc(CSCc2ccc(C(=O)NC3CC3)o2)cc1`, the half-life is 1.7 min.
With `C#CC1(O)CCC2C3CCC4=C/C(=N/OCC(=O)NCC(=O)NC(C(=O)O)C(C)C)CC[C@]4(C)C3CC[C@@]21C` (some centres not stated), the half-life is more than 30 min.
For the compound `NC[C@H](O)c1ccc(O)c(O)c1`, the half-life came out at 13.4 min.
In the case of `O=C(Nc1ccccc1C(=O)Nc1cccc(C(F)(F)F)c1)c1ccccc1`, the half-life was more than 30 min.
In turn, `CC(C)NC(=O)c1nc(-c2ccc(Cl)nc2)c2ccccn12` gave a half-life of 19.6 min.
Regarding `CCS(=O)(=O)c1nc(-c2ccc(Cl)cc2)cc(C(F)(F)F)n1`, the half-life came to 5.7 min.
With `CCc1ccc(NC(=O)c2cc3ncccn3n2)cc1`, the half-life was found to be 2.8 min.
`Cc1ccc(-c2cc3c(nn2)-c2ccccc2C3=O)cc1`: the half-life worked out at 3.4 min.
On to `COC(=O)[C@@H]1C[C@H](OC(C)=O)C(=O)[C@H]2[C@@]1(C)CCC1C(=O)O[C@H](c3ccoc3)C[C@@]12C` (some centres not stated), for which the half-life was 9.8 min.
In turn, `Cc1nn(CCc2nc(-c3ccccc3)cs2)c2[nH]c(=O)cc(C(F)(F)F)c12` came in with a half-life of 10.3 min. The half-life values of the last two compounds are within 1.5-fold of each other.
Regarding `C[C@H]1CN(C(=O)Nc2ccc(F)cc2)C[C@@H]1c1nc(-c2ccccc2)no1`, the half-life was more than 30 min.
Regarding `CCCCCCCc1c(C)nc(N2CCOCC2)[nH]c1=O`, the half-life was found to be 3.5 min.
Turning to `Cc1ccc(S(=O)(=O)Nc2ccccc2C(=O)Nc2cnc(-c3ccccc3)cn2)cc1`, the half-life was determined as 3.5 min.
In turn, `COc1ccc(C2CC(=O)Nc3nc(N)sc32)cc1OC` (configuration not stated) showed a half-life of more than 30 min.
For the compound `Cc1cc(N[S+](=O)([O-])c2ccc(NC(=O)Cc3ccc(F)c(F)c3)cc2)no1`, the half-life is more than 30 min.
`COc1cc(O)c([C@H](CC(=O)N2CC(C)CC(C)C2)c2ccc3c(c2)OCO3)c(OC)c1` (some centres not stated) came in with a half-life of 3.3 min.
`Cc1ccc(C(=O)Nc2ccc3oc(-c4cccnc4)nc3c2)cc1[N+](=O)[O-]` had a half-life of 13.2 min.
`CSc1ccc(/C=C/c2nc3ccccc3n2S(=O)(=O)c2cccc(Cl)c2)cc1` yielded a half-life of 3.54 min.
Regarding `CCCCNC(=O)CN1CCN(c2ncc(NC(=O)c3ccc(Cl)cc3)cc2C(=O)O)CC1`, the half-life was more than 30 min.
Regarding `CC(=O)c1c(C)[nH]c(C(=O)Nc2cccc([S+](=O)([O-])Nc3c(C)cccc3C)c2)c1C`, the half-life turned out to be 5 min.
In turn, `Cc1cnc(CNc2nc(-c3ccccc3Cl)nc3ccccc23)cn1` showed a half-life of 20 min.
With `O=C1Nc2ccccc2/C1=C/c1ccc[nH]1`, the half-life is 5.1 min.
In turn, `Cc1ccc(S(=O)(=O)Nc2ccc(Cl)cc2C(=O)Nc2nc(-c3ccccc3)cs2)cc1` came in with a half-life of 3.4 min.
In the case of `COc1ccc(-c2ccc3nc(-c4ccccc4C)oc3c2)c(OC)c1OC`, the half-life was more than 30 min.
The result for `Cc1ccc(NS(=O)(=O)c2ccc3[nH]c4c(c3c2)CCCCCC4)cc1` reads 2.08 min; that for `O=S(=O)(Nc1nccs1)c1ccc(NCc2cccc3cc[nH]c23)cc1`, more than 30 min; that for `CCc1ccc2oc(NC3=NC(c4[nH]ncc4Cl)C4=C(CCCC4=O)N3)nc2c1` (configuration not stated), 22 min.
As to `CSc1ccccc1-c1ccc(Nc2nc(-c3ccncc3)nc3ccccc23)cc1F`, the half-life came to 5.1 min.
The result for `CCc1cccc(NC(=O)CSc2nc3ccccc3nc2N2CCCCC2)c1` reads 1.97 min; that for `Fc1cnc(-c2ccccc2C(F)F)nc1NCc1ccc(-n2ccnn2)cc1`, 21 min.
The result for `Cc1ccc(-c2csc(N3CCC(C(N)=O)CC3)n2)cc1` reads 2.22 min.
`CCc1ccc2oc(=O)cc(CN3CCN(c4ccccc4F)CC3)c2c1` returned a half-life of 3 min.
The result for `CN(C(=O)CSc1nc2c(c(=O)[nH]1)CCCC2)c1ccccc1` reads 13 min; that for `CCOC(=O)c1ccc(NC2CCCCC2)c(N)c1`, 2.5 min; that for `CCCNC(=O)c1ccc2c(c1)ncn2-c1cc(C)cc(C)c1`, 17 min.
Regarding `CC(=O)N1CCc2cc(S(=O)(=O)NCCC3=CCCCC3)ccc21`, the half-life came out at 1.3 min.
In turn, `CC(C)COc1ccc(-c2csc(N3CCC(C(N)=O)CC3)n2)cc1` registered a half-life of 7.23 min.
Turning to `CC(=O)Nc1ncc(S(=O)(=O)Nc2cnccc2C(=O)Nc2nc(-c3ccccc3)cs2)s1`, the half-life is more than 30 min.
In the case of `O=C(c1nc(-c2ccc(Cl)nc2)c2ccccn12)N1CCCC1`, the half-life was 8.91 min.
`COc1ccc(-c2csc(N3CCC(C(N)=O)CC3)n2)cc1OC` had a half-life of more than 30 min.
For `O=C(Nc1ccc(N2CCN(c3ncccc3C(F)(F)F)CC2)nc1)c1cccs1`, the half-life stood at 10.3 min.
`O=[S+]([O-])(Nc1cccc2cccnc12)c1ccc(NCc2ccc(Cl)cc2O)cc1` came in with a half-life of 2.4 min.
